According to patent US20260285857A1, “BICYCLIC AND HETEROCYCLIC AMIDE COMPOUNDS” (priority 2024, published 2026):

test system: immunoglobulin light chain protein WIL-FL T46L; assay: Differential scanning fluorimetry (thermal shift) assay; format: binding; details: Table A; temperature shift [Tm]compound-[Tm]vehicle; recombinant WIL-FL T46L

SMILES | DSF
Cc1cc(N2CC[C@](C)(c3ccccc3)C2)cn2nc(C(=O)N3CC[C@H](O)C3)nc12 [Compound 174] | ***** (>2.5° C.=*****)
Cc1cc(N2CC[C@](C)(c3ccccc3)C2)cn2nc(C(=O)N[C@@H]3CC[C@@H]3O)nc12 [Compound 161] | ***** (>2.5° C.=*****)
Cc1cc(N2CC[C@](C)(c3ccccc3)C2)cn2nc(C(=O)NC3CCC(N4CC5C(C4)C5C(=O)O)C3)nc12 (stereo partly shown) [Compound 365] | ***** (>2.5° C.=*****)
Cc1cc(N2CCC(C)(c3ccc(F)cn3)C2)cn2nc(C(=O)N3CC[C@@]4(CCN(c5cccc(C(=O)O)n5)C4)C3)nc12 (stereo partly shown) [Compound 423] | *** (>1-1.5° C.=***)
CNC(=O)c1nc2c(C)cc(OC3CCC3(C)c3ccccc3)cn2n1 (stereo not shown) [Compound 16, N,8-dimethyl-6-(2-methyl-2-phenylcyclobutoxy)-[1,2,4]triazolo[1,5-a]pyridine-2-carboxamide] | * (0-0.5° C.=*)
Cc1cc(N2CC[C@](C)(c3ccccc3)C2)cn2nc(C(=O)NC3CCC(c4ccnc(C(=O)O)c4)CC3)nc12 (stereo partly shown) [Compound 226] | ***** (>2.5° C.=*****)
COC(C)(C)CNC(=O)c1nc2c(C)cc(N3CC[C@](C)(c4ccccc4)C3)cn2n1 [Compound 107] | ***** (>2.5° C.=*****)
Cc1cc(N2CCC(C)(c3ccc(F)c(F)c3)C2)cn2nc(C(=O)N3C[C@@H]4CN(c5cccc(C(=O)O)n5)C[C@@H]4C3)nc12 (stereo partly shown) [Compound 421] | ***** (>2.5° C.=*****)
Cc1cc(N2CC[C@](C)(c3ccccc3)C2)cn2nc(C(=O)N[C@@H]3CCC[C@@H]3O)nc12 [Compound 142] | ***** (>2.5° C.=*****)
Cc1cc(N2CC[C@](C)(c3ccccc3)C2)cn2nc(C34CC(CO3)C4c3nc(C(N)=O)n[nH]3)nc12 (stereo partly drawn) [Compound 6, 5-[1-[8-methyl-6-[(3R)-3-methyl-3-phenyl-pyrrolidin-1-yl]-[1,2,4]triazolo[1,5-a]pyridine-2-yl]-2-oxabicyclo[2.1.1]hexan-5-yl]-1H-1,2,4-triazole-3-carboxamide] | ***** (>2.5° C.=*****)
COC(=O)C1CCN(C2CCC23CC(NC(=O)c2nc4c(C)cc(N5CC[C@](C)(c6ccccc6)C5)cn4n2)C3)CC1 (stereo partly shown) [Compound 373] | ***** (>2.5° C.=*****)
Cc1cc(N2CC[C@](C)(c3ccccc3)C2)cn2nc(C(=O)N3C[C@@H](O)[C@@H](O)C3)nc12 [Compound 115] | ***** (>2.5° C.=*****)
Cc1cc(N2CC[C@](C)(c3ccccc3)C2)cn2nc(C(=O)NC34CC(CO)(C3)C4)nc12 [Compound 155] | ***** (>2.5° C.=*****)
CC(C)(O)CNC(=O)c1nc2c(CO)cc(N3CC[C@](C)(c4ccccc4)C3)cn2n1 [Compound 350] | ***** (>2.5° C.=*****)
Cc1cc(N2CC[C@](C)(c3ccccc3)C2)cn2nc(C(=O)N3CCC4(CC3)COCC4N3CC4C(C3)C4C(=O)O)nc12 (stereo partly shown) [Compound 353] | ***** (>2.5° C.=*****)
Cc1cc(N2CC[C@](C)(c3ccccc3)C2)cn2nc(C(=O)N3CCC4(CCN(c5nc(C(=O)O)nn5C)C4)C3)nc12 (stereo partly shown) [Compound 234] | ***** (>2.5° C.=*****)
Cc1cc(N2CC[C@](C)(c3ccccc3)C2)cn2nc(C(=O)NC3CCN(c4ccnc(S(C)(=N)=O)c4)CC3)nc12 (stereo partly shown) [Compound 283] | ***** (>2.5° C.=*****)
Cc1noc([C@@H]2C[C@H](NC(=O)c3nc4c(C)cc(N5CC[C@](C)(c6ccccc6)C5)cn4n3)CN2)n1 [Compound 133] | ***** (>2.5° C.=*****)
Cc1cnc(C2C3COC2(c2nc4c(C)cc(N5CC[C@](C)(c6ccccc6)C5)cn4n2)C3)[nH]1 (stereo partly shown) [Compound 70] | ***** (>2.5° C.=*****)
COC(=O)c1cccc(-c2nnc3n2CCN(C(=O)c2nc4c(C)cc(N5CC[C@](C)(c6ccccc6)C5)cn4n2)C3)n1 [Compound 406] | ***** (>2.5° C.=*****)
COC(=O)C12CCC(NC(=O)c3nc4c(C)cc(N5CC[C@](C)(c6ccccc6)C5)cn4n3)(C1)C2 [Compound 175] | ***** (>2.5° C.=*****)
Cc1cc(N2CC[C@](C)(c3ccccc3)C2)cn2nc(C(=O)N3C[C@@]4(C)CN(c5cccc(C(=O)O)n5)C[C@@]4(C)C3)nc12 [Compound 252] | ***** (>2.5° C.=*****)
Cc1cc(N2CC[C@](C)(c3cccc(Cl)c3)C2)cn2nc(C(=O)N3C[C@@H]4CN(c5cccc(C(=O)O)n5)C[C@@H]4C3)nc12 [Compound 418] | ***** (>2.5° C.=*****)
Cc1cc(N2CC[C@](C)(c3ccccc3)C2)cn2nc(C3OC4(CO)CC3(C(N)=O)C4)nc12 (stereo partly shown) [Compound 12] | ***** (>2.5° C.=*****)
Cc1cc(N2CC[C@](C)(c3ccccc3)C2)cn2nc(C(=O)NC34COC(CO)(C3)C4)nc12 [Compound 173] | ***** (>2.5° C.=*****)
Cc1cc(N2CC[C@](C)(c3ccccc3)C2)cn2nc(C(=O)NC3CN(c4cccc(C(=O)O)n4)CCC3(C)C)nc12 (stereo partly shown) [Compound 274] | ***** (>2.5° C.=*****)
Cc1cc(N2CC[C@](C)(c3ccccc3)C2)cn2nc(C34CC(N)(CO3)C4CO)nc12 (stereo partly drawn) [Compound 4, (4-amino-1-(8-methyl-6-((R)-3-methyl-3-phenylpyrrolidin-1-yl)-[1,2,4]triazolo[1,5-a]pyridin-2-yl)-2-oxabicyclo[2.1.1]hexan-5-yl)methanol] | ***** (>2.5° C.=*****)
Cc1cc(N2CC[C@](C)(c3ccccc3)C2)cn2nc(C34CC(CO3)C4C(=O)NCC(C)(C)O)nc12 (stereo partly shown) [Compound 71] | ***** (>2.5° C.=*****)
Cc1cc(N2CC[C@](C)(c3ccccc3)C2)cn2nc(C(=O)N3CC4CN(c5cccc(C(=O)O)n5)CC4(F)C3)nc12 (stereo partly shown) [Compound 244] | ***** (>2.5° C.=*****)
CNC(=O)c1cc2c(N)cc(N3CC[C@](C)(c4ccccc4)C3)cn2n1 [Compound 292] | *** (>1-1.5° C.=***)

same assay, conditions: Table B; temperature shift [Tm]compound-[Tm]vehicle; recombinant WIL-FL T46L

SMILES | DSF
CNC(=O)C12CC(NC(=O)c3nc4c(C)cc(N5CC[C@](C)(c6ccccc6)C5)cn4n3)(CO1)C2 [Compound 597] | ***** (>2.5° C.=*****)
Cc1cc(N2CC[C@](C)(c3ccccc3)C2)cn2nc(C34CC(CO3)C4COC3CCN(c4cccc(C(=O)O)n4)CC3)nc12 (stereo partly shown) [Compound 503] | ***** (>2.5° C.=*****)
COC(C)(CC(=O)N1CC2(C1)CN(C1C3COC1(c1nc4c(C)cc(N5CC[C@](C)(c6ccccc6)C5)cn4n1)C3)C(=O)N2)C(=O)O (stereo partly shown) [Compound 518] | ***** (>2.5° C.=*****)
Cc1cc(N2CC[C@](C)(c3ccccc3)C2)cn2nc(C34CC(C(=O)O)(CO3)C4c3nc(N)n[nH]3)nc12 (stereo partly drawn) [Compound 545, 5-(3-amino-1H-1,2,4-triazol-5-yl)-1-[8-methyl-6-[(3R)-3-methyl-3-phenyl-pyrrolidin-1-yl]-[1,2,4]triazolo[1,5-a]pyridin-2-yl]-2-oxabicyclo[2.1.1]hexane-4-carboxylic acid] | ***** (>2.5° C.=*****)
CCS(=O)(=O)Nc1n[nH]c(C2C3COC2(c2nc4c(C)cc(N5CC[C@@](C)(n6ccc(C(F)(F)F)n6)C5)cn4n2)C3)n1 (stereo partly shown) [Compound 563] | **** (>1.5-2.5° C.=****)
COc1ccc(OCC2C3COC2(c2nc4c(C)cc(N5CC[C@](C)(c6ccccc6)C5)cn4n2)C3)cn1 (stereo partly shown) [Compound 499] | ***** (>2.5° C.=*****)
Cc1cc(N2CC[C@](C)(c3ccccc3)C2)cn2nc(C(=O)N3C[C@@H]4CN(c5cccc(C(=O)O)n5)C[C@H]4C3)nc12 [Compound 644] | ***** (>2.5° C.=*****)
Cc1cc(N2CC[C@](C)(c3ccccc3)C2)cn2nc(C(=O)NC3CC4(C3)CN(C(=O)C35CC(C(=O)O)(C3)C5)C4)nc12 [Compound 681] | ***** (>2.5° C.=*****)
COC(C)(CS(=O)(=O)Nc1n[nH]c(C2C3COC2(c2nc4c(C)cc(N5CC[C@](C)(c6ccccc6)C5)cn4n2)C3)n1)C(=O)O (stereo partly shown) [Compound 567] | **** (>1.5-2.5° C.=****)
Cc1cc(N2CC[C@](C)(c3ccccc3)C2)cn2nc(C(=O)NCC3(O)CN(c4cccc(C(=O)O)n4)C3)nc12 [Compound 613] | ***** (>2.5° C.=*****)
Cc1cc(N2CC3(CCC3c3cccc(Cl)c3)C2)cn2nc(C(=O)N3CC[C@@]4(CCN(c5cccc(C(=O)O)n5)C4)C3)nc12 (stereo partly shown) [Compound 740] | **** (>1.5-2.5° C.=****)
Cc1cc(N2CC[C@](C)(c3ccccc3)C2)cn2nc(C(=O)N3CC[C@@]4(CCN(C(=O)C5CC(C)(C(=O)O)C5)C4)C3)nc12 (stereo partly shown) [Compound 709] | ***** (>2.5° C.=*****)
Cc1cc(N2CC[C@](C)(c3ccccc3)C2)cn2nc([C@]34C[C@H](CO3)[C@@H]4N3CC4(CN(c5cccc(C(=O)O)n5)C4)NC3=O)nc12 [Compound 520] | ***** (>2.5° C.=*****)
Cc1cc(N2CC[C@](C)(c3ccccc3)C2)cn2nc(C34CC(CO3)C4N3CC4(CN(C(=O)C5CC[C@@H](C(=O)O)O5)C4)NC3=O)nc12 (stereo partly shown) [Compound 517] | ***** (>2.5° C.=*****)
Cc1n[nH]c(C2C3(CNC(=O)C4CC[C@H](C(=O)O)O4)COC2(c2nc4c(C)cc(N5CC[C@](C)(c6ccccc6)C5)cn4n2)C3)n1 (stereo partly shown) [Compound 590] | ***** (>2.5° C.=*****)
COc1cc(N2CCC3(CCN(C(=O)c4nc5c(C)cc(N6CC[C@](C)(c7ccccc7)C6)cn5n4)C3)C2)cc(C(=O)O)n1 (stereo partly shown) [Compound 619] | ***** (>2.5° C.=*****)
Cc1cc(C(=O)O)cc(N2CC[C@@]3(CCN(C(=O)c4nc5c(C)cc(N6CC[C@](C)(c7ccccc7)C6)cn5n4)C3)C2)n1 [Compound 729, 2-methyl-6-((R)-7-(8-methyl-6-((R)-3-methyl-3-phenylpyrrolidin-1-yl)-[1,2,4]triazolo[1,5-a]pyridine-2-carbonyl)-2,7-diazaspiro[4.4]nonan-2-yl)isonicotinic acid] | ***** (>2.5° C.=*****)
Cc1cc(N2CC[C@](C)(c3ccccc3)C2)cc2nc(C(=O)N3CC[C@@]4(CCN(c5cccc(C(=O)O)n5)C4)C3)oc12 [Compound 756, 6-[(5R)-2-[7-methyl-5-[(3R)-3-methyl-3-phenyl-pyrrolidin-1-yl]-1,3-benzoxazole-2-carbonyl]-2,7-diazaspiro[4.4]nonan-7-yl]pyridine-2-carboxylic acid] | **** (>1.5-2.5° C.=****)
C[C@]1(c2ccccc2)CCN(c2cc(CO)c3nc(C(=O)N4CCC5(C4)CN(c4cccc(C(=O)O)n4)C5)nn3c2)C1 [Compound 618] | ***** (>2.5° C.=*****)
